According to publication PMC9883482, “TPX2 enhances the transcription factor activation of PXR and enhances the resistance of hepatocellular carcinoma cells to antitumor drugs” (Cell Death & Disease, 2023):

Legend:
HepG2 cells [1] = experiment: MTT cell survival examination; format: cell-based; conditions: Homo sapiens, HepG2, 48 h
Protocol: (§1) In the process of dissolving these pure drug powders, stirring, vortexing, and ultrasonic vibration were used to assist dissolution [17, 18]. After a drug was fully dissolved, Dulbecco’s modified Eagle’s medium (DMEM) without fetal bovine serum (FBS) was used to dilute the drug dissolved in DMSO. For doxorubicin, we used DMEM without FBS to dissolve the drug. When performing cell viability experiments (tetrazolium [MTT] assays), these drugs were diluted.
(§2) The antitumor activity of antitumor drugs injuring HCC cells was examined by using MTT assay. After culturing the HCC cells, transfection experiments were performed, and the cells were then seeded in 96-well cell culture plates (about 8000 cells per well). […] After the cells were treated with the drug for about 48 h, a dose of […] tetrazolium (MTT) reagent was added, and cells with the MTT reagent were incubated for 5 to 6 h. After incubation with the MTT was complete, all liquid in the 96-well cell culture plate was discarded, and about 100 μl of DMSO was added to each well to dissolve the cell samples. During the process of lysing the cell samples, the cell culture plate was shaken for 15 minutes to completely lyse the cells. After the lysis step was complete, the cell culture plate was centrifuged at 12,000 rpm at 4 °C, and the supernatant was collected for evaluation.
(§3) All statistical analyses in the presence work were performed using the GraphPad 8.0 (GraphPad Software Corporation, Armonk, NY, USA). […] For the survival analysis data, the survival curves were analyzed by the log-rank (Mantel–Cox) test to detect the P-value of the survival curve, the median survival time, and the 95% confidence interval (CI). For the co-relationship analysis, the data were analyzed by linear regression to determine the overall trend of a group of data points. […] If the slope was positive, the horizontal coordinate was positively related to the vertical coordinate, and if the slope was negative, the horizontal coordinate was negatively related to the vertical coordinate. For the multi-grouped data, the ordinary one-way analysis of variance (ANOVA) and multiple comparison methods were used. An ANOVA was used to examine whether any difference between groups could be detected. The multiple comparisons (t-test) was used to detect differences between pairs of data.

MHCC97-H cells = experiment: MTT cell survival examination; format: cell-based; conditions: Homo sapiens, MHCC97H, 48 h
Protocol: as §1, §2, §3

MHCC97-L cells = experiment: MTT cell survival examination; format: cell-based; conditions: Homo sapiens, MHCC97L, 48 h, median (95% CI)
Protocol: as §1, §2, §3

[2] = Blood concentration assay of sorafenib, mice bearing MHCC97-L tumours; format: in vivo; conditions: nude, mouse, plasma, 2 mg/kg, 2 mg/kg oral
Protocol: Table notes: After overexpression of TPX2 in MHCC97-L cells, the cells were inoculated with nude mice to form subcutaneous tumour tissue (the volume of tumour tissue was approximately 1 g) and then given 2 mg/kg via oral administration. After overexpression of TPX2 in MHCC97-L cells, the cells were inoculated into nude mice to form subcutaneous tumour tissue and then in situ liver tumour tissue was established. 2mg/kg via oral administration was given to nude mice. Thereafter, blood levels of sorafenib were measured.

HepG2 cells [3] = experiment: Subcutaneous tumor model; format: in vivo; conditions: nude mice; 2.0, 1.0 or 0.5 mg/kg oral
Text: In the process of dissolving these pure drug powders, stirring, vortexing, and ultrasonic vibration were used to assist dissolution.
The HCC cells were transfected with plasmids and then injected into the subcutaneous position of nude mice (the HepG2 cells were transfected with TPX2 for TPX2 overexpression and the siRNA of TPX2 for TPX2 knockdown). After the cells in the bottom of the dish were digested with trypsin, the cells were gently mixed with sterilized PBS to prepare a cell suspension. The resulting cell suspension was directly injected subcutaneously into nude mice using a pre-sterilized disposable medical syringe with a capacity of 1 ml. After that step, animal status was observed every day, and the tumor tissue was collected after 4 to 6 weeks of growth to detect the tumor volume (using a Vernier caliper to measure the long and short axes of the tumor tissue after which the tumor volume was calculated according to the formula: short axis × short axis × long axis/2) and weight (accurately weighed with a 1/10000th precision balance). Finally, the tumor tissue was ground with liquid nitrogen, and qPCR was then used to measure the mRNA expression level of the corresponding genes. The intrahepatic tumor model and the in vivo imaging of small-animals-related experiments were performed according to our previous publications. […]

[4] = system: HCC cells (MHCC97-H, MHCC97-L, or HepG2); experiment: Sorafenib retention in cultured HCC cells, LC-MS/MS; format: in vitro ADME, human; conditions: 48-h time point after 1 μmol/L incubation
Protocol: After incubation with sorafenib was complete, the medium containing sorafenib was discarded and replaced with normal DMEM + FBS for continuous cultures. Cell samples were collected at each time point starting at 0 (when the cell samples were collected immediately after the incubation step/baseline) followed by 4, 8, 12, 24, and 48 h.
For sorafenib-treated samples in cellular experiments, sorafenib processing and extraction of the samples were performed. HCC cell samples were re-suspended in PBS after which the organic solvent acetonitrile at a ratio of 1:1 was added. The samples were then crushed and extracted for about 30 min with vortex shaking. After that step, the samples were centrifuged at 12,000 rpm at 4 °C for about 15 to 20 min. At this time, the samples were separated into cell debris, organic, and water phases. The collected organic phase contained the sample of sorafenib in acetonitrile.
S transition pair was detected using LC–MS/MS: (1) the parent ion was 465 Da and (2) the product ion was 252 Da.

[5] = oral, Subcutaneous MHCC97-L Control tumour
[6] = oral, Subcutaneous MHCC97-L TPX2 tumour
[7] = po, intrahepatic MHCC97-L Control tumour
[8] = po, intrahepatic MHCC97-L TPX2 tumour

CNC(=O)c1cc(Oc2ccc(NC(=O)Nc3ccc(Cl)c(C(F)(F)F)c3)cc2)ccn1 [sorafenib]
IC50 (HepG2 cells [1]; HepG2, Control, median (95% CI)): 1.27 µM
IC50 (HepG2 cells [1]; HepG2, TPX2 overexpression, median (95% CI)): 4.68 µM
IC50 (HepG2 cells [1]; HepG2, siTPX2, median (95% CI)): 0.5 µM
IC50 (MHCC97-H cells; Control, median (95% CI)): 1.16 µM
IC50 (MHCC97-H cells; siTPX2, median (95% CI)): 0.47 µM
IC50 (MHCC97-L cells; Control): 1.86 µM
IC50 (MHCC97-L cells; TPX2 overexpression): 4.84 µM
concentration at 2 h [2, 5]: 17.4 ± 9.73 ng/mL
concentration at 2 h [2, 6]: 13.9 ± 6.77 ng/mL
concentration at 8 h [2, 5]: 142 ± 26.8 ng/mL
concentration at 8 h [2, 6]: 122 ± 27.9 ng/mL
concentration at 20 h [2, 5]: 112 ± 30.5 ng/mL
concentration at 20 h [2, 6]: 99.8 ± 19.6 ng/mL
concentration at 40 h [2, 5]: 44.4 ± 16.9 ng/mL
concentration at 40 h [2, 6]: 29.6 ± 17.2 ng/mL
concentration at 2 h [2, 7]: 17.9 ± 8.39 ng/mL
concentration at 2 h [2, 8]: 18.1 ± 9.63 ng/mL
concentration at 8 h [2, 7]: 138 ± 27.9 ng/mL
concentration at 8 h [2, 8]: 144 ± 30 ng/mL
concentration at 20 h [2, 7]: 117 ± 29.9 ng/mL
concentration at 20 h [2, 8]: 115 ± 29.9 ng/mL
concentration at 40 h [2, 7]: 51.6 ± 17.2 ng/mL
concentration at 40 h [2, 8]: 41.4 ± 19.1 ng/mL
subcutaneous growth of HepG2 cells (tumor volumes/weights) (HepG2 cells [3]): inhibited the subcutaneous growth of HepG2 cells in a dose-dependent manner
metabolism and elimination in cultured HCC cells [4]: almost completely metabolized and eliminated
